Data reported in ChEMBL document CHEMBL4382200, “Discovery of Novel 7-Aryl 7-Deazapurine 3'-Deoxy-ribofuranosyl Nucleosides with Potent Activity against Trypanosoma cruzi” (J Med Chem, 2018).
Activity calls are given as the source filed them. The rule behind the calls is not given here.

What was measured:
[1] = Therapeutic index, ratio EC50 for human MRC5 SV2 cells to EC50 for Trypanosoma cruzi Tulahuen CL2 intracellular amastigotes; format: toxicity, cell-based; conditions: read-out: Ratio EC50
[2] = test system: CYP450; experiment: Drug metabolism in dog liver microsome S9 fraction assessed as CYP450-mediated metabolism by measuring compound remaining at 5 uM pretreated with NADPH and measured after 15 mins by UPLC-MS/MS analysis; format: ADME, microsomes, Canis lupus familiaris; conditions: liver microsome S9 fraction, read-out: Stability
[3] = molecular target: T1, UDP-glucuronosyltransferases (UGTs) (family) (Homo sapiens, UniProt O60656+O75310+O75795+P06133+P0DTE4+P0DTE5+P16662+P19224+P22309+P22310+P35503+P35504+P36537+P54855+Q6UWM9+Q9BY64+Q9HAW7+Q9HAW8+Q9HAW9); experiment: Drug metabolism in human liver microsome S9 fraction assessed as UGT-mediated metabolism by measuring compound remaining at 5 uM pretreated with UDPGA and measured after 30 mins by UPLC-MS/MS analysis; format: ADME, microsomes; conditions: liver microsome S9 fraction, read-out: Stability
[4] = test system: UGT; experiment: Drug metabolism in dog liver microsome S9 fraction assessed as UGT-mediated metabolism by measuring compound remaining at 5 uM pretreated with UDPGA and measured after 30 mins by UPLC-MS/MS analysis; format: ADME, microsomes, Canis lupus familiaris; conditions: liver microsome S9 fraction, read-out: Stability
[5] = test system: UGT; experiment: Drug metabolism in mouse liver microsome S9 fraction assessed as UGT-mediated metabolism by measuring compound remaining at 5 uM pretreated with UDPGA and measured after 60 mins by UPLC-MS/MS analysis; format: ADME, microsomes; conditions: liver microsome S9 fraction, read-out: Stability
[6] = test system: CYP450; experiment: Drug metabolism in mouse liver microsome S9 fraction assessed as CYP450-mediated metabolism by measuring compound remaining at 5 uM pretreated with NADPH and measured after 15 mins by UPLC-MS/MS analysis; format: ADME, microsomes; conditions: liver microsome S9 fraction, read-out: Stability
[7] = test system: Trypanosoma cruzi; experiment: Antiparasitic activity against Trypanosoma cruzi Tulahuen CL2 intracellular amastigotes expressing beta-galactosidase infected in human MRC5 SV2 cells after 7 days by chlorophenol red beta-D-galactopyranoside-based spectrophotometric analysis; format: functional, organism-based; conditions: Tulahuen CL2, MRC-5 SV2, 168 h, read-out: EC50
[8] = test system: CYP450; experiment: Drug metabolism in mouse liver microsome S9 fraction assessed as CYP450-mediated metabolism by measuring compound remaining at 5 uM pretreated with NADPH and measured after 30 mins by UPLC-MS/MS analysis; format: ADME, microsomes; conditions: liver microsome S9 fraction, read-out: Stability
[9] = test system: UGT; experiment: Drug metabolism in mouse liver microsome S9 fraction assessed as UGT-mediated metabolism by measuring compound remaining at 5 uM pretreated with UDPGA and measured after 30 mins by UPLC-MS/MS analysis; format: ADME, microsomes; conditions: liver microsome S9 fraction, read-out: Stability
[10] = test system: Trypanosoma cruzi; experiment: (§1) Antiparasitic activity against Trypanosoma cruzi Y strain bloodstream trypomastigotes infected in Swiss Webster mouse assessed as protection against parasite-induced mortality at 25 mg/kg, po bid via gavage administered for 5 consecutive days starting from day 5 post infection measured at day 15 post infection; format: functional, organism-based
[11] = test system: CYP450; experiment: Drug metabolism in dog liver microsome S9 fraction assessed as CYP450-mediated metabolism by measuring compound remaining at 5 uM pretreated with NADPH and measured after 60 mins by UPLC-MS/MS analysis; format: ADME, microsomes, Canis lupus familiaris; conditions: liver microsome S9 fraction, read-out: Stability
[12] = test system: UGT; experiment: Drug metabolism in dog liver microsome S9 fraction assessed as UGT-mediated metabolism by measuring compound remaining at 5 uM pretreated with UDPGA and measured after 60 mins by UPLC-MS/MS analysis; format: ADME, microsomes, Canis lupus familiaris; conditions: liver microsome S9 fraction, read-out: Stability
[13] = test system: UGT; experiment: Drug metabolism in dog liver microsome S9 fraction assessed as UGT-mediated metabolism by measuring compound remaining at 5 uM pretreated with UDPGA and measured after 15 mins by UPLC-MS/MS analysis; format: ADME, microsomes, Canis lupus familiaris; conditions: liver microsome S9 fraction, read-out: Stability
[14] = test system: UGT; experiment: Drug metabolism in rat liver microsome S9 fraction assessed as UGT-mediated metabolism by measuring compound remaining at 5 uM pretreated with UDPGA and measured after 30 mins by UPLC-MS/MS analysis; format: ADME, microsomes; conditions: liver microsome S9 fraction, read-out: Stability
[15] = test system: Trypanosoma cruzi; experiment: Antiparasitic activity against Trypanosoma cruzi Y strain bloodstream trypomastigotes infected in Swiss Webster mouse assessed as decrease in parasitemia at 25 mg/kg, po bid via gavage administered for 5 consecutive days measured at day 8 post infection by direct microscopic counting relative to control; format: functional; parameters: scale not given: the % may be the effect or the level left
[16] = test system: CYP450; experiment: Drug metabolism in dog liver microsome S9 fraction assessed as CYP450-mediated metabolism by measuring compound remaining at 5 uM pretreated with NADPH and measured after 30 mins by UPLC-MS/MS analysis; format: ADME, microsomes, Canis lupus familiaris; conditions: liver microsome S9 fraction, read-out: Stability
[17] = test system: CYP450; experiment: Drug metabolism in mouse liver microsome S9 fraction assessed as CYP450-mediated metabolism by measuring compound remaining at 5 uM pretreated with NADPH and measured after 60 mins by UPLC-MS/MS analysis; format: ADME, microsomes; conditions: liver microsome S9 fraction, read-out: Stability
[18] = molecular target: T2, Cytochrome P450 (family) (Homo sapiens, UniProt P04798+P05177+P05181+P08684+P10632+P10635+P11509+P11712+P13584+P20813+P20815+P20853+P24462+P24903+P33260+P33261+P51589+P78329+P98187+Q02928+Q08477+Q16678+Q16696+Q5TCH4+Q6VVX0+Q7Z449+Q8TAV3+Q96SQ9+Q9HB55); experiment: Drug metabolism in human liver microsome S9 fraction assessed as CYP450-mediated metabolism by measuring compound remaining at 5 uM pretreated with NADPH and measured after 30 mins by UPLC-MS/MS analysis; format: ADME, microsomes; conditions: liver microsome S9 fraction, read-out: Stability
[19] = molecular target: T1, UDP-glucuronosyltransferases (UGTs) (family); experiment: Drug metabolism in human liver microsome S9 fraction assessed as UGT-mediated metabolism by measuring compound remaining at 5 uM pretreated with UDPGA and measured after 15 mins by UPLC-MS/MS analysis; format: ADME, microsomes; conditions: liver microsome S9 fraction, read-out: Stability
[20] = test system: Trypanosoma cruzi; experiment: Trypanocidal activity against Trypanosoma cruzi Y strain intracellular amastigotes infected in mouse cardiac cells assessed as parasite death after 168 hrs by Giemsa-staining based assay; format: functional, organism-based
[21] = test system: UGT; experiment: Drug metabolism in rat liver microsome S9 fraction assessed as UGT-mediated metabolism by measuring compound remaining at 5 uM pretreated with UDPGA and measured after 15 mins by UPLC-MS/MS analysis; format: ADME, microsomes; conditions: liver microsome S9 fraction, read-out: Stability
[22] = test system: Trypanosoma cruzi; experiment: Antiparasitic activity against Trypanosoma cruzi Y strain bloodstream trypomastigotes infected in Swiss Webster mouse at 25 mg/kg, po bid via gavage administered for 5 consecutive days starting from day 5 post infection followed by cyclophosphamide-induced immunosuppression on day 40 post infection for 4 consecutive days; format: functional, organism-based
[23] = test system: Trypanosoma cruzi; experiment: Trypanocidal activity against Trypanosoma cruzi Y strain bloodstream trypomastigotes isolated from infected Swiss mouse […] assessed as parasite death after 24 hrs by neubauer chamber based light microscopy; format: functional, organism-based
[24] = Toxicity in Swiss Webster mouse infected with Trypanosoma cruzi Y strain bloodstream trypomastigotes assessed as weight loss at 25 mg/kg, po bid via gavage administered for 5 consecutive days measured at day 40 post infection; format: organism-based; conditions: in vivo
[25] = test system: Trypanosoma cruzi; experiment: as §1, with “15 to day 22” for “15”; format: functional, organism-based
[26] = molecular target: T2, Cytochrome P450 (family); experiment: Drug metabolism in human liver microsome S9 fraction assessed as CYP450-mediated metabolism by measuring compound remaining at 5 uM pretreated with NADPH and measured after 15 mins by UPLC-MS/MS analysis; format: ADME, microsomes; conditions: liver microsome S9 fraction, read-out: Stability
[27] = test system: UGT; experiment: Drug metabolism in mouse liver microsome S9 fraction assessed as UGT-mediated metabolism by measuring compound remaining at 5 uM pretreated with UDPGA and measured after 15 mins by UPLC-MS/MS analysis; format: ADME, microsomes; conditions: liver microsome S9 fraction, read-out: Stability
[28] = test system: CYP450; experiment: Drug metabolism in rat liver microsome S9 fraction assessed as CYP450-mediated metabolism by measuring compound remaining at 5 uM pretreated with NADPH and measured after 60 mins by UPLC-MS/MS analysis; format: ADME, microsomes; conditions: liver microsome S9 fraction, read-out: Stability
[29] = Cytotoxicity against Swiss mouse embryonic cardiomyocytes assessed as reduction in cell viability after 24 hrs by prestoblue-staining based colorimetry; conditions: Cardiac muscle cell
[30] = test system: CYP450; experiment: Drug metabolism in rat liver microsome S9 fraction assessed as CYP450-mediated metabolism by measuring compound remaining at 5 uM pretreated with NADPH and measured after 15 mins by UPLC-MS/MS analysis; format: ADME, microsomes; conditions: liver microsome S9 fraction, read-out: Stability
[31] = test system: UGT; experiment: Drug metabolism in rat liver microsome S9 fraction assessed as UGT-mediated metabolism by measuring compound remaining at 5 uM pretreated with UDPGA and measured after 60 mins by UPLC-MS/MS analysis; format: ADME, microsomes; conditions: liver microsome S9 fraction, read-out: Stability
[32] = test system: CYP450; experiment: Drug metabolism in rat liver microsome S9 fraction assessed as CYP450-mediated metabolism by measuring compound remaining at 5 uM pretreated with NADPH and measured after 30 mins by UPLC-MS/MS analysis; format: ADME, microsomes; conditions: liver microsome S9 fraction, read-out: Stability
[33] = test system: Trypanosoma cruzi; experiment: Antiparasitic activity against Trypanosoma cruzi Y strain bloodstream trypomastigotes infected in Swiss Webster mouse assessed as protection against parasite-induced mortality by measuring survivial at 25 mg/kg, po bid via gavage administered for 5 consecutive days starting from day 5 post infection measured at day 40 post infection relative to control; format: functional
[34] = molecular target: T2, Cytochrome P450 (family); experiment: Drug metabolism in human liver microsome S9 fraction assessed as CYP450-mediated metabolism by measuring compound remaining at 5 uM pretreated with NADPH and measured after 60 mins by UPLC-MS/MS analysis; format: ADME, microsomes; conditions: liver microsome S9 fraction, read-out: Stability
[35] = Cytotoxicity against human MRC5 SV2 cells assessed as reduction in cell viability after 3 days resazurin-based fluorimetric assay; conditions: MRC-5 SV2, 72 h
[36] = molecular target: T1, UDP-glucuronosyltransferases (UGTs) (family); experiment: Drug metabolism in human liver microsome S9 fraction assessed as UGT-mediated metabolism by measuring compound remaining at 5 uM pretreated with UDPGA and measured after 60 mins by UPLC-MS/MS analysis; format: ADME, microsomes; conditions: liver microsome S9 fraction, read-out: Stability

SMILES: Nc1ncnc2c1c(-c1ccc(Cl)cc1)cn2[C@@H]1O[C@H](CO)C[C@H]1O
- selectivity ratio [1]: 410
- remaining at 0.25 h, 5 µM [2]: 98%
- remaining at 0.5 h, 5 µM [3]: 106%
- remaining at 0.5 h, 5 µM [4]: 96%
- remaining at 1 h, 5 µM [5]: 89%
- remaining at 0.25 h, 5 µM [6]: 86%
- EC50 [7]: 0.047 µM
- remaining at 0.5 h, 5 µM [8]: 75%
- remaining at 0.5 h, 5 µM [9]: 95%
- Activity [10]: Active
- remaining at 1 h, 5 µM [11]: 90%
- remaining at 1 h, 5 µM [12]: 95%
- remaining at 0.25 h, 5 µM [13]: 96%
- remaining at 0.5 h, 5 µM [14]: 96%
- Activity [15]: 94.6%
- remaining at 0.5 h, 5 µM [16]: 96%
- remaining at 1 h, 5 µM [17]: 68%
- remaining at 0.5 h, 5 µM [18]: 95%
- remaining at 0.25 h, 5 µM [19]: 100%
- EC50 [20]: 0.029 µM
- remaining at 0.25 h, 5 µM [21]: 101%
- Activity [22]: inactive
- EC50 [23]: > 20 µM
- Activity [24]: Non-Toxic
- Activity [25]: Active
- remaining at 0.25 h, 5 µM [26]: 102%
- remaining at 0.25 h, 5 µM [27]: 101%
- remaining at 1 h, 5 µM [28]: 91%
- EC50 [29]: 284 µM
- remaining at 0.25 h, 5 µM [30]: 101%
- remaining at 1 h, 5 µM [31]: 96%
- remaining at 0.5 h, 5 µM [32]: 101%
- Activity [33]: 100%
- remaining at 1 h, 5 µM [34]: 93%
- EC50 [35]: 19.1 µM
- remaining at 1 h, 5 µM [36]: 100%
